Reference: patent US8501908B2, “Immunogenic peptides” (priority 2008, dated 2013)

Tests used:
[1] = test system: PBMCs from DLBCL patients; experiment: γ-IFN release ELISPOT, PBMCs of DLBCL patients after short-term culture with peptides; type: cell-based, human; set-up: γ-IFN response to peptides: unit not given here; details: for γ-IFN response to peptides: triplicate ELISPOT
[2] = test system: PBMCs from healthy donors; experiment: γ-IFN release ELISPOT, PBMCs of healthy donors after short-term culture with peptides; type: cell-based, human; details: triplicate ELISPOT, ± SD
[3] = Patient 1, De novo DLBCL, DRB1-0102, group Significant response, ± SD
[4] = Patient 2, De novo DLBCL, DRB1-0101, group Significant response, ± SD
[5] = Patient 3, De novo DLBCL, DRB1-0301, group Significant response, ± SD
[6] = Patient 4, De novo DLBCL, DRB1-0102, group Significant response, ± SD
[7] = Patient 8, De novo DLBCL, DRB1-1501, group Significant response, ± SD
[8] = Patient 9, De novo DLBCL, DRB1-0301, group Significant response, ± SD
[9] = Patient 10, De novo DLBCL, DRB1-0101, group No significant response, ± SD
[10] = Patient 12, De novo DLBCL, DRB1-0401, group Significant response, ± SD
[11] = Patient 15, De novo DLBCL, DRB1-1301, group No significant response, ± SD
[12] = Patient 17, De novo DLBCL, DRB1-0301, group No significant response, ± SD
[13] = Patient 18, De novo DLBCL, DRB1-0401, group No significant response, ± SD
[14] = Patient 19, De novo DLBCL, DRB1-1104, group No significant response, ± SD
[15] = Patient 20, De novo DLBCL, DRB1-1303, group No significant response, ± SD
[16] = Patient 21, De novo DLBCL, DRB1-0301, group No significant response, ± SD
[17] = Patient 24, De novo DLBCL, DRB1-1301, group Significant response, ± SD
[18] = Patient 28, Trans DLBCL, DRB1-0701, group No significant response, ± SD
[19] = Patient 37, Trans DLBCL, DRB1-0103, group Significant response, ± SD
[20] = Patient 48, T-cell rich DLBCL, DRB1-0301, group Significant response, ± SD
[21] = Patient 61, De novo DLBCL, DRB1-0401, group No significant response, ± SD

Substance | γ-IFN response to peptides [1, 3] | γ-IFN response to peptides [1, 4] | γ-IFN response to peptides [1, 5] | γ-IFN response to peptides [1, 6] | γ-IFN response to peptides [1, 7] | γ-IFN response to peptides [1, 8] | γ-IFN response to peptides [1, 9] | γ-IFN response to peptides [1, 10] | γ-IFN response to peptides [1, 11] | γ-IFN response to peptides [1, 12] | γ-IFN response to peptides [1, 13] | γ-IFN response to peptides [1, 14] | γ-IFN response to peptides [1, 15] | γ-IFN response to peptides [1, 16] | γ-IFN response to peptides [1, 17] | γ-IFN response to peptides [1, 18] | γ-IFN response to peptides [1, 19] | γ-IFN response to peptides [1, 20] | γ-IFN response to peptides [1, 21] | γ-IFN response to peptides ([2]; Healthy donor HD 1, DRB1-0102) | other results
ILKEPVHGV [HIV peptide, reference compound] |  |  |  |  |  |  |  |  |  |  |  |  |  |  |  |  |  |  |  |  | TH γ-IFN response to peptides at time of diagnosis and after one year ([1]; DLBCL patients (FIG. 5), short term culture, p<0.05): No significant response; γ-IFN response to CTL peptides at time of diagnosis and after one year ([1]; HLA-A*0201-positive DLBCL patients (12 and 48, FIG. 2a), short term culture, p<0.05): No significant response
NHPVRFLQAQPIVPVQRAAE (listed as Homo sapiens) [PASD1(10)] | 40 ± 2 | 40 ± 4 | 32 ± 2 | 32 ± 4 | 18 ± 4 | 14 ± 2 | 32 ± 2 | 32 ± 4 | 18 ± 4 | 10 ± 4 | 22 ± 2 | 12 ± 2 | 16 ± 2 | 18 ± 2 | 16 ± 4 | 10 ± 2 | 34 ± 2 | 38 ± 2 | 6 ± 2 | 10 ± 2 | γ-IFN response to peptides ([2]; Healthy donor HD 2, DRB1-0401): 4 ± 2; γ-IFN response to peptides ([2]; Healthy donor HD 3, DRB1-0401): 2 ± 1; γ-IFN response to peptides ([2]; Healthy donor HD 4, DRB1-0301): 18 ± 2; γ-IFN response to peptides ([2]; Healthy donor HD 5, DRB1-0301): 16 ± 2
VGNVCILRTQLLQQLYTSKA (listed as Homo sapiens) [PASD1(9)] | 30 ± 2 | 24 ± 2 | 24 ± 2 | 18 ± 2 | 18 ± 2 | 20 ± 2 | 10 ± 2 | 20 ± 4 | 8 ± 2 | 8 ± 2 | 24 ± 2 | 18 ± 2 | 8 ± 2 | 16 ± 2 | 26 ± 4 | 22 ± 4 | 28 ± 2 | 26 ± 2 | 16 ± 2 | 14 ± 2 | γ-IFN response to peptides ([2]; Healthy donor HD 2, DRB1-0401): 1 ± 1; γ-IFN response to peptides ([2]; Healthy donor HD 3, DRB1-0401): 8 ± 2; γ-IFN response to peptides ([2]; Healthy donor HD 4, DRB1-0301): 19 ± 2; γ-IFN response to peptides ([2]; Healthy donor HD 5, DRB1-0301): 18 ± 2
phytohaemagglutinin [PHA, reference compound] | 98 ± 15 | 106 ± 18 | 62 ± 8 | 98 ± 14 | 48 ± 4 | 118 ± 18 | 78 ± 8 | 72 ± 10 | 58 ± 6 | 54 ± 12 | 62 ± 12 | 58 ± 14 | 52 ± 10 | 102 ± 10 | 86 ± 14 | 45 ± 8 | 126 ± 22 | 84 ± 10 | 58 ± 10 | 86 ± 14 | γ-IFN response to peptides ([1]; PBMCs from a DLBCL patient stimulated in culture with PASD1(6) or PASD1(7) peptides, +/− SD): 48 +/− 2; γ-IFN response to peptides ([2]; Healthy donor HD 2, DRB1-0401): 66 ± 10; γ-IFN response to peptides ([2]; Healthy donor HD 3, DRB1-0401): 46 ± 6; γ-IFN response to peptides ([2]; Healthy donor HD 4, DRB1-0301): 74 ± 16; γ-IFN response to peptides ([2]; Healthy donor HD 5, DRB1-0301): 63 ± 10
